The values that follow are results of earlier work, collected in patent US20230218627A1, “PRESERVATIVE FREE PHARMACEUTICAL COMPOSITION FOR OPHTHALMIC ADMINISTRATION COMPRISING BRIMONIDINE” (PHARMATHEN S.A., priority 2020, published 2023).

Molecules are shown by their SMILES.

Data set [1] concerns alpha-2 adrenergic receptor.

Take `Brc1c(NC2=NCCN2)ccc2nccnc12` [Brimonidine]: the “selectivity for the alpha-2 adrenergic receptor than the alpha-1 adrenergic receptor” value in data set [1] was 1000 fold.

Take `CC(C)(C)NC[C@H](O)COc1nsnc1N1CCOCC1.O=C(O)/C=C\C(=O)O` [Timolol maleate, (2S)-1-[(1,1-Dimethylethyl)amino]-3-[[4-(morpholin-4-yl)-1,2,5-thiadiazol-3-yl]oxy]propan-2-ol (Z)-butenedioate]: the solubility in ethanol entry (ethanol) was “soluble”. For the same compound, the solubility in water entry (water) was “soluble”.
